The record followed here is US8748412B2, “Phenylalanine derivatives and their use as non-peptide GLP-1 receptor modulators” (Argusina Bioscience Inc., priority 2011, dated 2014).

SMILES strings stand for the structures. Where only a bound is given, the exact number is not on record here.

The target in one assay is T1, human GLP1R (Homo sapiens, UniProt P43220).
T1 construct: expressed in transfected cells; host or cells: CHO cells (ATCC), transient transfection with pCMV-human GLP1R
T1 sequence (P43220 24-463): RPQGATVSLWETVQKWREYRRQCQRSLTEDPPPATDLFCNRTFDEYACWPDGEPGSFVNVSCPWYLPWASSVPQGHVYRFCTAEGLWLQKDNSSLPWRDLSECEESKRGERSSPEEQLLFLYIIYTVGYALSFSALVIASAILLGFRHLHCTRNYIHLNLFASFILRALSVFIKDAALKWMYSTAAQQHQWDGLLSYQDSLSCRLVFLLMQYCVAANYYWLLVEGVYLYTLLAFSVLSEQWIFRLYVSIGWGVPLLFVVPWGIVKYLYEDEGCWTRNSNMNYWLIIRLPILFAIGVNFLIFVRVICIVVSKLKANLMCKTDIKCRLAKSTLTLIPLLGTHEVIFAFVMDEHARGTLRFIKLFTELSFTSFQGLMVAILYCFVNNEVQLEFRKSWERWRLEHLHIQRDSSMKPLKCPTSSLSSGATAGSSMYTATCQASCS
Briefly: Human GLP-1 receptor transfected cell assay (MRE/CRE-luciferase reporter gene, agonist activity). The format is cell-based. Particulars: 6 h; conc. 3.16 μM; percentage of the activity of the control; read-out: Agonist Activity. The method in brief: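 CHO cells transiently co-transfected with human GLP1R and MRE/CRE-driven luciferase reporter plasmids. Compound or GLP-1 (7-36 amide) standard dilution series added for 6 h at 37 °C, 5% CO2. Agonist activity read as Bright-Glo luciferase luminescence.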
As for `Cc1ccc(-c2ccc(C(=O)NC(Cc3ccc(-c4noc(-c5ccc(NC(=O)OC(C)(C)C)cc5)n4)c(Br)c3)C(=O)O)o2)cc1` (stereo not shown) [Compound 13G], the activation at 3.16 µM was > 60%.

The assay is the same for the next values; noted with them: 6 h; conc. 10 μM; percentage of the activity of the control; read-out: Agonist Activity.
Take `CC(C)c1ccc(S(=O)(=O)NC(Cc2ccc(-c3noc(-c4ccc(NC(=O)OC(C)(C)C)cc4)n3)c(F)c2)C(=O)O)cc1` (stereo not shown) [Compound 11C]: the activation at 10 µM lay within 20 to 40%.
Same read-out and setting: then `Cc1ccc(CNC(=O)C(Cc2ccc(OC(=O)c3ccc(NC(=O)OC(C)(C)C)cc3)c(F)c2)c2nnn[nH]2)cc1` (stereo not shown) [Compound 11D], with 20 to 40%.
Still for that read-out and setting: then `Cc1ccc(S(=O)(=O)NC(Cc2ccc(-c3noc(-c4ccc(NC(=O)OC(C)(C)C)cc4)n3)c(F)c2)C(=O)O)cc1Cl` (stereo not shown) [Compound 11F], with 40 to 60%.
On the same count and under the same terms, under `CC(C)(C)OC(=O)Nc1ccc(-c2nc(-c3ccc(CC(NC(=O)c4ccc(-c5ccc([N+](=O)[O-])cc5)o4)C(=O)O)cc3F)no2)cc1` (stereo not shown) [Compound 11G] stands > 60%; under `CC(C)(C)OC(=O)Nc1ccc(-c2nc(-c3ccc(CC(NS(=O)(=O)c4ccc([N+](=O)[O-])cc4)C(=O)O)cc3F)no2)cc1` (stereo not shown) [Compound 11H], 40 to 60%.
`Cc1cc(C)c(S(=O)(=O)NC(Cc2ccc(-c3noc(-c4ccc(NC(=O)OC(C)(C)C)cc4)n3)c(F)c2)C(=O)O)c(C)c1` (stereo not shown) [Compound 11I]: the activation at 10 µM is 40 to 60%.
`CC(C)(C)OC(=O)Nc1ccc(-c2nc(-c3ccc(CC(NS(=O)(=O)c4cccc5cccnc45)C(=O)O)cc3F)no2)cc1` (stereo not shown) [Compound 11J]: the activation at 10 µM is > 60%.
Still for that read-out and setting: under `CC(C)(C)OC(=O)Nc1ccc(-c2nc(-c3ccc(CC(NS(=O)(=O)c4ccc(-c5ccccc5)cc4)C(=O)O)cc3F)no2)cc1` (stereo not shown) [Compound 11K] stands > 60%; under `CC(C)(C)OC(=O)Nc1ccc(-c2nc(-c3ccc(CC(NS(=O)(=O)c4ccc(OC(F)(F)F)cc4)C(=O)O)cc3F)no2)cc1` (stereo not shown) [Compound 11L], 20 to 40%.
As to `CC(C)(C)OC(=O)Nc1ccc(-c2nc(-c3ccc(CC(NS(=O)(=O)c4ccc(C(F)(F)F)cc4[N+](=O)[O-])C(=O)O)cc3F)no2)cc1` (stereo not shown) [Compound 11M], the activation at 10 µM is > 60%.
On the same count and under the same terms, then `Cc1ccc(-c2cccc(C(=O)NC(Cc3ccc(-c4noc(-c5ccc(NC(=O)OC(C)(C)C)cc5)n4)c(F)c3)C(=O)O)c2)cc1` (stereo not shown) [Compound 11N], with > 60%.
The same measure, in the same setting: under `CC(C)(C)OC(=O)Nc1ccc(-c2nc(-c3ccc(CC(NC(=O)c4ccc(-c5ccc(C(F)(F)F)cc5)o4)C(=O)O)cc3F)no2)cc1` (stereo not shown) [Compound 11O] stands > 60%.
Regarding `CC(C)(C)OC(=O)Nc1ccc(-c2nc(-c3ccc(CC(NC(=O)c4ccc(-c5ccc(F)cc5)s4)C(=O)O)cc3F)no2)cc1` (stereo not shown) [Compound 11P], the activation at 10 µM is 20 to 40%.
Same read-out and setting: then `Cc1ccc(CN2CCN(C(=O)NC(Cc3ccc(-c4noc(-c5ccc(NC(=O)OC(C)(C)C)cc5)n4)c(F)c3)C(=O)O)CC2)cc1` (stereo not shown) [Compound 11Q], with > 60%; and `CC(C)(C)OC(=O)Nc1ccc(-c2nc(-c3ccc(CC(NC(=O)C4CCN(C(=O)OC(C)(C)C)CC4)C(=O)O)cc3F)no2)cc1` (stereo not shown) [Compound 11R], with > 60%; and `CC(C)(C)OC(=O)Nc1ccc(-c2nc(-c3ccc(CC(NC(=O)Nc4cc(-c5ccccc5)n[nH]4)C(=O)O)cc3F)no2)cc1` (stereo not shown) [Compound 11S], with > 60%.
Same read-out and setting: then `CC(C)(C)OC(=O)Nc1ccc(-c2nc(-c3ccc(CC(NC(=O)CN4CCN(C(=O)OC(C)(C)C)CC4)C(=O)O)cc3F)no2)cc1` (stereo not shown) [Compound 11T], with 40 to 60%.
Regarding `CN1CCN(c2ccc(C(=O)NC(Cc3ccc(-c4noc(-c5ccc(NC(=O)OC(C)(C)C)cc5)n4)c(F)c3)C(=O)O)o2)CC1` (stereo not shown) [Compound 11U], the activation at 10 µM was 20 to 40%.
Still for that read-out and setting: then `CC(C)(C)OC(=O)Nc1ccc(-c2nc(-c3ccc(CC(NC(=O)c4cn(-c5ccc(C(C)(C)C)cc5)nn4)C(=O)O)cc3F)no2)cc1` (stereo not shown) [Compound 11V], with > 60%.
On the same count and under the same terms, then `CC(C)(C)OC(=O)Nc1ccc(-c2nc(-c3ccc(CC(NS(=O)(=O)N4CCN(C(=O)OC(C)(C)C)CC4)C(=O)O)cc3F)no2)cc1` (stereo not shown) [Compound 11W], with 40 to 60%; and `CC(C)(C)OC(=O)Nc1ccc(-c2nc(-c3ccc(CC(NS(=O)(=O)N4CCN(c5ccccc5)CC4)C(=O)O)cc3F)no2)cc1` (stereo not shown) [Compound 11X], with > 60%; and `CC(C)(C)OC(=O)Nc1ccc(-c2nc(-c3ccc(CC(NC(=O)c4cccc(N5CCCCC5)c4)C(=O)O)cc3F)no2)cc1` (stereo not shown) [Compound 11Y], with 20 to 40%.
Still for that read-out and setting: then `CC(C)(C)OC(=O)Nc1ccc(-c2nc(-c3ccc(CC(NS(=O)(=O)NCc4ccccc4)C(=O)O)cc3F)no2)cc1` (stereo not shown) [Compound 11Z], with 40 to 60%; and `CC(C)(C)OC(=O)Nc1ccc(-c2nc(-c3ccc(CC(NC(=O)N4CCN(c5ccc(C(F)(F)F)cc5)CC4)C(=O)O)cc3F)no2)cc1` (stereo not shown) [Compound 12A], with > 60%; and `CC(C)(C)OC(=O)Nc1ccc(-c2nc(-c3ccc(CC(NC(=O)N4CCN(c5cccc(Cl)c5)CC4)C(=O)O)cc3F)no2)cc1` (stereo not shown) [Compound 12C], with > 60%.
On to `CC(C)(C)OC(=O)Nc1ccc(-c2nc(-c3ccc(CC(NC(=O)N4CCN(c5ccccc5C#N)CC4)C(=O)O)cc3F)no2)cc1` (stereo not shown) [Compound 12D], for which the activation at 10 µM is > 60%.
Still for that read-out and setting: then `CC(C)(C)OC(=O)Nc1ccc(-c2nc(-c3ccc(CC(NC(=O)N4CCN(c5cccc(C(F)(F)F)c5)CC4)C(=O)O)cc3F)no2)cc1` (stereo not shown) [Compound 12F], with > 60%; and `Cc1ccc(-c2cc(NC(=O)NC(Cc3ccc(-c4noc(-c5ccc(NC(=O)OC(C)(C)C)cc5)n4)c(F)c3)C(=O)O)[nH]n2)cc1` (stereo not shown) [Compound 12G], with > 60%.
On to `COc1ccc(-c2cc(NC(=O)NC(Cc3ccc(-c4noc(-c5ccc(NC(=O)OC(C)(C)C)cc5)n4)c(F)c3)C(=O)O)[nH]n2)cc1` (stereo not shown) [Compound 12H], for which the activation at 10 µM was > 60%.
On the same count and under the same terms, under `CC(C)(C)OC(=O)Nc1ccc(-c2nc(-c3ccc(CC(NC(=O)Nc4cc(-c5ccc(F)cc5)n[nH]4)C(=O)O)cc3F)no2)cc1` (stereo not shown) [Compound 12I] stands > 60%.
The same measure, in the same setting: under `CC(C)(C)OC(=O)Nc1ccc(-c2nc(-c3ccc(CC(NC(=O)N4CCN(c5ccc(Cl)cc5)CC4)C(=O)O)cc3F)no2)cc1` (stereo not shown) [Compound 13A] stands > 60%.
Still for that read-out and setting: under `CC(C)(C)OC(=O)Nc1ccc(-c2nc(-c3ccc(CC(NC(=O)c4ccc(-c5ccccn5)s4)C(=O)O)cc3F)no2)cc1` (stereo not shown) [Compound 13B] stands > 60%; under `CC(C)(C)OC(=O)Nc1ccc(-c2nc(-c3ccc(CC(NC(=O)Nc4ccccc4)C(=O)O)cc3F)no2)cc1` (stereo not shown) [Compound 13D], 40 to 60%.
Take `Cc1ccc(-c2ccc(C(=O)NC(Cc3ccc(-c4noc(-c5ccc(NC(=O)OC(C)(C)C)cc5)n4)c(F)c3F)C(=O)O)o2)cc1` (stereo not shown) [Compound 13F]: the activation at 10 µM was > 60%.
Still for that read-out and setting: under `CC(C)(C)OC(=O)Nc1ccc(-c2nc(-c3ccc(CC(NC(=O)Nc4ccc(C(F)(F)F)cc4)C(=O)O)cc3F)no2)cc1` (stereo not shown) [Compound 13H] stands > 60%.
The same measure, in the same setting: under `Cc1ccc(-c2ccc(C(=O)NC(Cc3ccc(-c4noc(-c5ccc(NC(=O)OC(C)(C)C)cc5)n4)c(C#N)c3)C(=O)O)o2)cc1` (stereo not shown) [Compound 13I] stands 40 to 60%.
Regarding `CC(C)(C)OC(=O)Nc1ccc(-c2nc(-c3ccc(CC(NC(=O)Nc4ccc(-c5ccc(C(F)(F)F)cc5)cn4)C(=O)O)cc3F)no2)cc1` (stereo not shown) [Compound 13K], the activation at 10 µM was > 60%.
On the same count and under the same terms, then `Cc1cccc(-c2ccc(NC(=O)NC(Cc3ccc(-c4noc(-c5ccc(NC(=O)OC(C)(C)C)cc5)n4)c(F)c3)C(=O)O)nc2)c1` (stereo not shown) [Compound 13L], with > 60%; and `Cc1ccc(-c2ccc(NC(=O)NC(Cc3ccc(-c4noc(-c5ccc(NC(=O)OC(C)(C)C)cc5)n4)c(F)c3)C(=O)O)nc2)cc1Cl` (stereo not shown) [Compound 13M], with > 60%; and `CC(C)(C)OC(=O)Nc1ccc(-c2nc(-c3ccc(CC(NC(=O)Nc4ccc(-c5ccc(OC(F)(F)F)cc5)cn4)C(=O)O)cc3F)no2)cc1` (stereo not shown) [Compound 13N], with > 60%.
The same measure, in the same setting: under `CC(C)c1ccc(-c2ccc(NC(=O)NC(Cc3ccc(-c4noc(-c5ccc(NC(=O)OC(C)(C)C)cc5)n4)c(F)c3)C(=O)O)nc2)cc1` (stereo not shown) [Compound 13O] stands 40 to 60%.
For `Cc1ccc(N2CCC(NC(=O)NC(Cc3ccc(-c4noc(-c5ccc(NC(=O)OC(C)(C)C)cc5)n4)c(F)c3)C(=O)O)C2)cc1` (stereo not shown) [Compound 13P], the activation at 10 µM is > 60%.
On the same count and under the same terms, then `CC(C)(C)OC(=O)Nc1ccc(-c2nc(-c3ccc(CC(NC(=O)c4cccc(-c5ccc(Cl)cc5)c4)C(=O)O)cc3F)no2)cc1` (stereo not shown) [Compound 13Q], with > 60%.
As for `Cc1ccc(-c2cccc(NC(=O)NC(Cc3ccc(-c4noc(-c5ccc(NC(=O)OC(C)(C)C)cc5)n4)c(F)c3)C(=O)O)c2)cc1` (stereo not shown) [Compound 13R], the activation at 10 µM is > 60%.
Still for that read-out and setting: under `CC(C)(C)OC(=O)Nc1ccc(-c2nc(-c3ccc(CC(NC(=O)Nc4cc(-c5ccc(F)c(Br)c5)n[nH]4)C(=O)O)cc3F)no2)cc1` (stereo not shown) [Compound 13S] stands > 60%.

The assay is the same for the next values; noted with them: 6 h; concentration 1 μM; read-out: Activity (agonist), percentage of the activity of the control.
In the case of `Cc1cc(-c2ccc(C(=O)N[C@@H](Cc3ccc(-c4noc(-c5ccc(NC(=O)OC(C)(C)C)cc5)n4)c(F)c3)C(=O)O)o2)ccc1F` [Compound 10E], the activation at 1 µM is > 60%.

Staying with this assay, now noted: 6 h; concentration 3.16 μM; read-out: Activity (agonist), percentage of the activity of the control.
As to `Cc1ccc(-c2ccc(C(=O)N[C@H](Cc3ccc(-c4noc(-c5ccc(NC(=O)OC(C)(C)C)cc5)n4)c(F)c3)C(=O)O)o2)cc1` [Compound 11E], the activation at 3.16 µM was > 60%.
Still for that read-out and setting: under `Cc1ccc(-c2ccc(C(=O)N[C@@H](Cc3ccc(-c4noc(-c5ccc(NC(=O)OC(C)(C)C)cc5)n4)c(F)c3)C(=O)O)o2)cc1` [Compound 12E] stands > 60%.
